As usually defined, the IC50 is the concentration at which inhibition is half-maximal. Low values mean greater potency in that assay, high ones weaker potency in that assay.

In patent publication US11174248B2, “Indazolyl-spiro[2.3]hexane-carbonitrile derivatives as LRRK2 inhibitors, pharmaceutical compositions, and uses thereof” (Merck Sharp & Dohme Corp., priority 2017, dated 2021) one finds IC50 data, which are given here for 28 molecules.

GST-tagged truncated human mutant G2019S LRRK2, sequence (Q5S007 970-2527 G2019S): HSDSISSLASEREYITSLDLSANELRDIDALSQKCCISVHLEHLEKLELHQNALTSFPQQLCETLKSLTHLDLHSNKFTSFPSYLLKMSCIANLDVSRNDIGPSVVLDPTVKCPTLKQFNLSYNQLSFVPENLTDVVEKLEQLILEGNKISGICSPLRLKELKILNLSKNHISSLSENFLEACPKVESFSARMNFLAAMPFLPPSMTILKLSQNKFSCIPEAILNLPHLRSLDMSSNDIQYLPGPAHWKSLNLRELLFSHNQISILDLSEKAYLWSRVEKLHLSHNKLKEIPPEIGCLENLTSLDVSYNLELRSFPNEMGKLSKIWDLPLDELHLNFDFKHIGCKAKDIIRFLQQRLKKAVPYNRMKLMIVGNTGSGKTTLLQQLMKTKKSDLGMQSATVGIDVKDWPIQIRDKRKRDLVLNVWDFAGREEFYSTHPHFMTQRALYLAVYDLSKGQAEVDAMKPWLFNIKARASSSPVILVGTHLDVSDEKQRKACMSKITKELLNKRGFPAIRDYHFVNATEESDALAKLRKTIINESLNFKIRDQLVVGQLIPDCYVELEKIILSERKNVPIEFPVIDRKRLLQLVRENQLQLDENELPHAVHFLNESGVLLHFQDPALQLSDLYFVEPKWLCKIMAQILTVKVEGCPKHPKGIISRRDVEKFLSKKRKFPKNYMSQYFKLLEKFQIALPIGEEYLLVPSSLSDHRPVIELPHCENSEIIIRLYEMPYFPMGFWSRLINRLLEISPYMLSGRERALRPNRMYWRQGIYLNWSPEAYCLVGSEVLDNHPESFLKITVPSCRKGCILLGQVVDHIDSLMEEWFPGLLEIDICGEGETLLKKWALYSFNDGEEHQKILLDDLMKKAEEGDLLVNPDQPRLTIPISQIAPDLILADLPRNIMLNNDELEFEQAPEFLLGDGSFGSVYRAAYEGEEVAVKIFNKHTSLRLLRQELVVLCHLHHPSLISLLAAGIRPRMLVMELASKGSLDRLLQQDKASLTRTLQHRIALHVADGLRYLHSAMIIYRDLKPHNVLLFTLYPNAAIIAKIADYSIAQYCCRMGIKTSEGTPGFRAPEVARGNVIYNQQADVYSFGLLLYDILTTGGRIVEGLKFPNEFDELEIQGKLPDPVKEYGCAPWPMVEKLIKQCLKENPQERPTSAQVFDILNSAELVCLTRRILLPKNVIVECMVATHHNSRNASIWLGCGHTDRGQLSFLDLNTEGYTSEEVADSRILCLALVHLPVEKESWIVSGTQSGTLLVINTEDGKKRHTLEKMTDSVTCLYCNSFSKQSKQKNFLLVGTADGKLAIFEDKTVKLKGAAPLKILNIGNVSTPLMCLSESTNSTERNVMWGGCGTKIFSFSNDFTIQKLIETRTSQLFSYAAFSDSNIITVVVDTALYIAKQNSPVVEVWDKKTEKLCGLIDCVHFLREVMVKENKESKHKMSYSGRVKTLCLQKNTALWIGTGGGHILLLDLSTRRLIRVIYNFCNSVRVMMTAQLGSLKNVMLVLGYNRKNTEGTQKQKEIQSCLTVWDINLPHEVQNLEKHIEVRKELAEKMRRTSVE

The assay has as its target GST-tagged truncated human mutant G2019S LRRK2 (Homo sapiens (Human), UniProt Q5S007, G2019S). The experiment in a line: LRRK2 Km ATP LanthaScreen Assay. In kind it is biochemical. To be noted: 134 μM ATP (Km ATP); fluorescein-labeled LRRKtide substrate; mean IC50 values. On the procedure: Unless otherwise noted, all LRRK2 IC50 data presented in tables refers to the LRRK2 Km ATP LanthaScreen™ Assay that is described in the Biological Assay section.
Biological Assay: LRRK2 Km ATP LanthaScreen™ Assay
The LRRK2 kinase activity reported herein as IC50 values was determined with LanthaScreen™ technology from Life Technologies Corporation (Carlsbad, Calif.) using GST-tagged truncated human mutant G2019S LRRK2 in the presence of the fluorescein-labeled peptide substrate LRRKtide, also from Life Technologies. The data presented for the Km ATP LanthaScreen™ Assay represents mean IC50 values based on several test results and may have reasonable deviations depending on the specific conditions and reagents used. Assays were performed in the presence of 134 μM ATP (Km ATP). Upon completion, the assay was stopped and phosphorylated substrate detected with a terbium (Tb)-labeled anti-pERM antibody (cat. no. PV4898). The compound dose response was prepared by diluting a 10 mM stock of compound to a maximum concentration of 9.99 μM in 100% dimethylsulfoxide followed by custom fold serial dilution in dimethylsulfoxide nine times. Twenty nanoliters of each dilution was spotted via a Labcyte Echo onto a 384-well black-sided plate (Corning 3575) followed by 15 μl of a 1.25 nM enzyme solution in 1× assay buffer (50 mM Tris pH 8.5, 10 mM MgCl2, 0.01% Brij-35, 1 mM EGTA, 2 mM dithiothreitol, 0.05 mM sodium orthovanadate) Following a 15-minute incubation at room temperature, the kinase reaction was started with the addition of 5 μl of 400 nM fluorescein-labeled LRRKtide peptide substrate and 134 μM ATP solution in 1× assay buffer. The reaction was allowed to progress at ambient temperature for 90 minutes. The reaction was then stopped by the addition of 20 μl of TR-FRET Dilution Buffer (Life Technologies, Carlsbad, Calif.) containing 2 nM Tb-labeled anti-phospho LRRKtide antibody and 10 mM EDTA (Life Technologies, Carlsbad, Calif.). After an incubation of 1 hour at room temperature, the plate was read on an EnVision multimode plate reader (Perkin Elmer, Waltham, Mass.) with an excitation wavelength of 337 nm (Laser) and a reading emission at both 520 and 495 nm. Compound IC50s were interpolated from nonlinear regression best fits of the log of the final compound concentration, plotted as a function of the 520/495-nm emission ratio using Activity base. Abase uses a 4 parameter (4P) logistic fit based on the Levenberg-Marquardt algorithm.
(In general: In TR-FRET formats the signal depends on donor and acceptor labels being close together.)
Molecule `Cc1nc(N2CC3(C(C)(C)O)CC2C3)cc(-n2ncc3ccc(C4(C#N)CC5(CC5)C4)cc32)n1` [Example 5, 5-(1-(6-(4-(2-hydroxypropan-2-yl)-2-azabicyclo[2.1.1]hexan-2-yl)-2-methylpyrimidin-4-yl)-1H-indazol-6-yl)spiro[2.3]hexane-5-carbonitrile] registered a half-inhibitory concentration (IC50) of 12.3 nM.
The result for `COC1(C)CN(c2cc(-n3ncc4ccc(C5(C#N)CC6(CC6)C5)cc43)ncn2)C1` [Example 26, 5-(1-(6-(3-methoxy-3-methylazetidin-1-yl)pyrimidin-4-yl)-1H-indazol-6-yl)spiro[2.3]hexane-5-carbonitrile] reads 4.3 nM.
Next, `CC1CC12CC(C#N)(c1ccc3cnn(-c4cc(N5CCN6CCOC[C@@H]6C5)ncn4)c3c1)C2` (single isomer, unassigned) [Example 50]: 4.4 nM; `N#CC1(c2ccc3cnn(-c4cc(N5CCN6CCOC[C@@H]6C5)ncn4)c3c2)CC2(CC2)C1` [Example 45, (S)-5-(1-(6-(hexahydropyrazino[2,1-c][1,4]oxazin-8(1H)-yl)pyrimidin-4-yl)-1H-indazol-6-yl)spiro[2.3]hexane-5-carbonitrile]: 2 nM.
Next, `CC1CC12CC(C#N)(c1ccc3cnn(-c4cc(N5CCN6CCOC[C@@H]6C5)ncn4)c3c1)C2` (single isomer, unassigned) [Example 52]: 2.4 nM; `N#CC1(c2ccc3cnn(-c4cc(N5CC6(CO)CC5C6)ncn4)c3c2)CC2(CC2)C1` [Example 7, 5-(1-(6-(4-(hydroxymethyl)-2-azabicyclo[2.1.1]hexan-2-yl)pyrimidin-4-yl)-1H-indazol-6-yl)spiro[2.3]hexane-5-carbonitrile]: 1.5 nM; `CC1CC12CC(C#N)(c1ccc3cnn(-c4cc(N5CCN6CCOC[C@@H]6C5)ncn4)c3c1)C2` (single isomer, unassigned) [Example 51]: 9.8 nM.
The molecule `C[C@H]1CN(c2cc(-n3ncc4ccc(C5(C#N)CC6(CC6)C5)cc43)ncn2)CCN1C1COC1` [Example 13, (S)-5-(1-(6-(3-methyl-4-(oxetan-3-yl)piperazin-1-yl)pyrimidin-4-yl)-1H-indazol-6-yl)spiro[2.3]hexane-5-carbonitrile] showed an IC50 of 1 nM.
The result for `COc1nc(N2CC3(C(C)(C)O)CC2C3)cc(-n2ncc3ccc(C4(C#N)CC5(CC5)C4)cc32)n1` [Example 30, 5-(1-(6-(4-(2-hydroxypropan-2-yl)-2-azabicyclo[2.1.1]hexan-2-yl)-2-methoxypyrimidin-4-yl)-1H-indazol-6-yl)spiro[2.3]hexane-5-carbonitrile] reads 12.3 nM; that for `COCC12CC(C1)N(c1cc(-n3ncc4ccc(C5(C#N)CC6(CC6)C5)cc43)ncn1)C2` [Example 9, 5-(1-(6-(4-(methoxymethyl)-2-azabicyclo[2.1.1]hexan-2-yl)pyrimidin-4-yl)-1H-indazol-6-yl)spiro[2.3]hexane-5-carbonitrile], 9.3 nM; that for `CC1C2(CC2)CC1(C#N)c1ccc2cnn(-c3cc(N4CCN5CCOC[C@@H]5C4)ncn3)c2c1` (single isomer, unassigned) [Example 54], 1.7 nM.
The result for `CN1CCOC2CN(c3cc(-n4ncc5ccc(C6(C#N)CC7(CC7)C6)cc54)ncn3)CC21` (single isomer, unassigned) [Example 41] reads 1.2 nM.
The result for `C[C@H]1CN(c2cc(-n3ncc4ccc(C5(C#N)CC6(CC6)C5)cc43)ncn2)CCN1C1CCOC1` (single isomer, unassigned) [Example 35] reads 3.5 nM.
In the case of `Cc1nc(N2CC[C@@H](O)[C@@H](F)C2)cc(-n2ncc3ccc(C4(C#N)CC5(CC5)C4)cc32)n1` [Example 4, 5-(1-(6-((3S,4R)-3-fluoro-4-hydroxypiperidin-1-yl)-2-methylpyrimidin-4-yl)-1H-indazol-6-yl)spiro[2.3]hexane-5-carbonitrile], half-maximal inhibition (IC50) required 7.4 nM.
`CC1C2(CC2)CC1(C#N)c1ccc2cnn(-c3cc(N4CCN5CCOC[C@@H]5C4)ncn3)c2c1` (single isomer, unassigned) [Example 53] showed an IC50 of 7.9 nM. This IC50 and that of the molecule before are within 1.5-fold of each other.
The result for `Cc1nc(N2CC[C@@H](C(C)(C)O)C2)cc(-n2ncc3ccc(C4(C#N)CC5(CC5)C4)cc32)n1` [Example 10, (R)-5-(1-(6-(3-(2-hydroxypropan-2-yl)pyrrolidin-1-yl)-2-methylpyrimidin-4-yl)-1H-indazol-6-yl)spiro[2.3]hexane-5-carbonitrile] reads 3.8 nM.
The result for `CC(C)(O)C12CC(C1)N(c1cc(-n3ncc4cnc(C5(C#N)CC6(CC6)C5)cc43)ncn1)C2` [Example 18, 5-(1-(6-(4-(2-hydroxypropan-2-yl)-2-azabicyclo[2.1.1]hexan-2-yl)pyrimidin-4-yl)-1H-pyrazolo[4,3-c]pyridin-6-yl)spiro[2.3]hexane-5-carbonitrile] reads 19.2 nM.
Next, `Cc1nc(N2CCN3CCOC[C@@H]3C2)cc(-n2ncc3ccc(C4(C#N)CC5(CC5)C4)cc32)n1` [Example 47, (S)-5-(1-(6-(hexahydropyrazino[2,1-c][1,4]oxazin-8(1H)-yl)-2-methylpyrimidin-4-yl)-1H-indazol-6-yl)spiro[2.3]hexane-5-carbonitrile]: 3.2 nM.
In the case of `N#CC1(c2ccc3cnn(-c4cc(N5CC[C@@H](CO)C5)ncn4)c3c2)CC2(CC2)C1` [Example 8, (R)-5-(1-(6-(3-(hydroxy-methyl)pyrrolidin-1-yl)pyrimidin-4-yl)-1H-indazol-6-yl)spiro[2.3]hexane-5-carbonitrile], half-maximal inhibition (IC50) required 2.9 nM.
The molecule `CC1C(C(C)(C)O)CCN1c1cc(-n2ncc3ccc(C4(C#N)CC5(CC5)C4)cc32)ncn1` (single isomer, unassigned) [Example 36, 5-(1-(6-(3-(2-hydroxypropan-2-yl)-2-methylpyrrolidin-1-yl)pyrimidin-4-yl)-1H-indazol-6-yl)spiro[2.3]hexane-5-carbonitrile] gave an IC50 of 3.2 nM.
For `CC(C)(O)C1CN(c2cc(-n3ncc4ccc(C5(C#N)CC6(CC6)C5)cc43)ncn2)CC1F` (single isomer, unassigned) [Example 23, 5-(1-(6-(3-fluoro-4-(2-hydroxypropan-2-yl)pyrrolidin-1-yl)pyrimidin-4-yl)-1H-indazol-6-yl)spiro[2.3]hexane-5-carbonitrile], the IC50 is 4.6 nM.
Next, `C[C@H]1CN(c2cc(-n3ncc4ccc(C5(C#N)CC6(CC6)C5)cc43)ccn2)CCN1C1COC1` [Example 31, (S)-5-(1-(2-(3-methyl-4-(oxetan-3-yl)piperazin-1-yl)pyridin-4-yl)-1H-indazol-6-yl)spiro[2.3]hexane-5-carbonitrile]: 11.3 nM.
The result for `C[C@H]1CN(c2cc(-n3ncc4ccc(C5(C#N)CC6(CC6)C5)cc43)ncn2)CCO1` [Example 42, (S)-5-(1-(6-(2-methyl-morpholino)pyrimidin-4-yl)-1H-indazol-6-yl)spiro[2.3]hexane-5-carbonitrile] reads 5.6 nM.
Next, `N#CC1(c2ccc3cnn(-c4cc(N5CC[C@H](O)[C@@H](F)C5)ncn4)c3c2)CC2(CC2)C1` [Example 6, 5-(1-(6-((3S,4S)-3-fluoro-4-hydroxypiperidin-1-yl)pyrimidin-4-yl)-1H-indazol-6-yl)spiro[2.3]hexane-5-carbonitrile]: 6.2 nM; `CC1(O)CC2(CN(c3cc(-n4ncc5ccc(C6(C#N)CC7(CC7)C6)cc54)ncn3)C2)C1` (stereo not shown) [Example 33, 5-(1-(6-(6-hydroxy-6-methyl-2-azaspiro[3.3]heptan-2-yl)pyrimidin-4-yl)-1H-indazol-6-yl)spiro[2.3]hexane-5-carbonitrile]: 1 nM.
Molecule `CC1C2(CC2)CC1(C#N)c1ccc2cnn(-c3cc(N4CCN5CCOC[C@@H]5C4)ncn3)c2c1` (single isomer, unassigned) [Example 56] showed a concentration for half-maximal inhibition (IC50) of 3 nM.
The result for `Cc1nc(N2CC[C@H](O)[C@H](F)C2)cc(-n2ncc3ccc(C4(C#N)CC5(CC5)C4)cc32)n1` [Example 3, 5-(1-(6-((3R,4S)-3-fluoro-4-hydroxypiperidin-1-yl)-2-methylpyrimidin-4-yl)-1H-indazol-6-yl)spiro[2.3]hexane-5-carbonitrile] reads 18 nM; that for `CC1C(C(C)(C)O)CCN1c1cc(-n2ncc3ccc(C4(C#N)CC5(CC5)C4)cc32)ncn1` (single isomer, unassigned) [Example 39, 5-(1-(6-(3-(2-hydroxypropan-2-yl)-2-methylpyrrolidin-1-yl)pyrimidin-4-yl)-1H-indazol-6-yl)spiro[2.3]hexane-5-carbonitrile], 1.2 nM.
